These results are taken from a melting point compilation (Tetko et al.; mined from patent text by program, amines drawn as free bases though some values may be those of a salt).

`CCCc1nn(C)c2c(=O)[nH]c(-c3cc(C(=O)O)ccc3OCC)nc12`: the melting point fell in the range of 285 to 288 °C.

For the molecule `O=S1CCN(c2nc(N3CCNCC3)cc3ccc(Cl)cc23)CC1`, the melting point lay in the range of 209 to 211 °C.

The molecule `O=Cc1c(F)cccc1Sc1ccc(F)cc1` yielded a melting point of 94 to 97 °C.

`CCOC(=O)c1cnc2ccc(OCC)nc2c1Nc1ccc(Oc2ccccn2)cc1` returned a melting point of 148 to 151 °C.

Turning to `COc1ccc(CN2C(=O)[C@@H](N3C(=O)c4ccccc4C3=O)[C@H]2/C=C/c2ccccc2)c(OC)c1` (relative stereo), the melting point lay in the range of 173 to 177 °C.

`COc1ccc2c(C(=O)O)c(OC)ccc2c1` showed a melting point of 153 to 155 °C.

`CCCCn1c(=O)c2nn(S(=O)(=O)c3c(Cl)cc(Cl)cc3Cl)cc2n(CCCC)c1=O`: the melting point lay in the range of 89 to 92 °C.

`O=C1Nc2cc(Cl)ccc2C(=O)C1c1ccsc1` (centres undefined) yielded a melting point of 341 to 344 °C.

Turning to `COC(=O)CC[C@H](NC(=O)c1c[nH]c(CCC2CNc3nc(NC(=O)C(C)(C)C)nc(O)c3C2)n1)C(=O)OC` (some centres undefined), the melting point fell in the range of 129 to 131 °C.

With `C(=C\c1nc(COc2ccc(CCCCCCn3cncn3)cc2)co1)/c1ccccc1`, the melting point lay within 90 to 91 °C.

Molecule `CC(C)Oc1ccc(-n2c(CC(=O)O)c(C(=O)O)c3cc(Oc4ncccc4C(=O)O)ccc32)cc1` returned a melting point of 212 to 214 °C.

`CC(C)(C)OC(=O)Nc1cc(N2CCC(OC3CCCCO3)CC2)c(-c2ccc(F)cc2)cc1N` (racemic) displayed a melting point of 157 to 161 °C.

The molecule `COc1c(CC#N)c2c(c3c1OC(C)(C)C3)C(c1cccc(C(=O)NC3CCCCNC3=O)c1)=NC(C)(C)C2` (centres undefined) showed a melting point of 130 to 132 °C.

In the case of `CC(=O)c1c(C)[nH]c(C(C)CCC(C)c2[nH]c(C)c(C(C)=O)c2C)c1C` (centres undefined), the melting point was 263 to 268 °C.

`CCOC(=O)Cn1c(=O)n(Cc2ccc(Cl)cc2)c(=O)c2c(C)c(C)sc21` gave a melting point of 151 to 152 °C.

`Clc1cc(NCCc2ccccc2)c2ccccc2n1` returned a melting point of 132 to 133 °C.

In turn, `O=C(O)C1CCc2c([nH]c3ccc(O)cc23)C1` (centres undefined) came in with a melting point of 255 to 257 °C.

For `CN(C)CCN(C)c1ccc(Nc2cc(-c3cc(F)cc(N4CCc5c(sc6c5CCCC6)C4=O)c3CO)cn(C)c2=O)nc1`, the melting point fell in the range of 122 to 123 °C.

Consider `N#CN1CCN(c2nn(-c3ccccc3)c3cc(F)ccc23)CC1`, for which the melting point fell in the range of 172 to 174 °C.

The molecule `O=C(Nc1cccc([N+](=O)[O-])c1)NC1N=C(c2ccccc2F)c2ccccc2N(CC(=O)N2CC3CCC(CC3)C2)C1=O` (racemic) registered a melting point of 180 to 187 °C.

As for `COc1nc2ccc([N+](=O)[O-])cc2nc1Cl`, the melting point was in the range of 155 to 158 °C.

Turning to `CC(C)(C)OC(=O)NCCCCCCNC(=O)c1cccc(-c2nc(=O)c3ccccc3s2)n1`, the melting point turned out to be 145 °C.

Consider `CCOC(=O)C(=O)N(c1ccccc1)c1ccc(OC)cc1OC`, for which the melting point lay in the range of 142 to 144 °C.

Consider `C[Si](C)(C)C#Cc1ccc(I)cc1`, for which the melting point fell in the range of 57 to 59 °C.

On to `CCOC(=O)c1cc(=O)c(Cl)c(-c2ccccc2)o1`, for which the melting point is 103 to 105 °C.

The molecule `CC(C)CON=Cc1ccc2c(c1)c1cc(-c3ccc(Cl)cc3Cl)c(=O)n(C)c1n2C` had a melting point of 100 to 110 °C.

Regarding `COc1ccc(-c2c(Cl)c(CN3C(=O)COC3=O)nc3sc4c(c23)CCC(C(=O)O)C4)cc1` (centres undefined), the melting point was 218 to 219 °C.

Regarding `CCCCCN1CCN(c2nc(C)c(C(=O)NCc3cccnc3)s2)C1=O`, the melting point is 102 to 103 °C.

`C/C(=C\c1ccc(C(=O)O)cc1)c1ccc2c(c1)C(C)(C)CCO2`: the melting point lay in the range of 179 to 181 °C.

The molecule `CCOC(=O)c1c(-c2ccc(Cl)cc2)[nH]c(C(F)(F)F)c1C(F)(F)F` registered a melting point of 138 to 140 °C.

On to `NC(=O)N(O)[C@H]1CC[C@H](Oc2ccccc2)C1`, for which the melting point is 134 °C.

The molecule `COc1ccc(-n2c(-c3ccc(-c4ccc(-c5nc6c7ccccc7c7ccccc7c6n5-c5ccc(OC)cc5)cc4)cc3)nc3c4ccccc4c4ccccc4c32)cc1` displayed a melting point of 403 °C.

For `NS(=O)(=O)c1ccc(-n2nc(C(F)(F)F)cc2-c2ccc(-c3ccco3)c(Cl)c2)cc1F`, the melting point came to 172 °C.

As for `C[C@@H]1O[C@](C#CC2CC2)(C(F)(F)F)c2c(ccc(F)c2F)NC1=O` (relative stereo), the melting point was in the range of 219 to 220 °C.

Molecule `Clc1ccccc1COc1c(Cl)cc(OCC=C(Br)Br)cc1Cl` gave a melting point of 83.5 °C.

The molecule `N#Cc1ccc2ccccc2c1O` gave a melting point of 182 to 183 °C.

Molecule `CCOC(=O)c1ccc(-c2nc(COc3ccc(C=O)cc3OC)c(C)o2)s1` had a melting point of 155 to 156 °C.

The molecule `C[C@@H]1N=C(c2ccccc2F)c2cc([N+](=O)[O-])ccc2N(C)C1=O` had a melting point of 95 to 110 °C.

The molecule `CCOC(=O)NC(=S)NCC(C)C` displayed a melting point of 50 to 52 °C.

In turn, `O=[N+]([O-])c1cc(OCc2ccccc2)ccc1Cl` yielded a melting point of 50 to 50.5 °C.

As to `O=[N+]([O-])c1ccc(NN=C2c3ncc(Cl)cc3C=CC2Cl)c([N+](=O)[O-])c1` (centres undefined), the melting point is over 280 °C.

`CCc1cccc2c3c([nH]c12)C(CC)(CC(=O)OC)OCC3NC=O` (centres undefined) came in with a melting point of 154 to 156 °C.

With `c1ccc(-n2c3ccccc3c3cc(-n4ccnc4-c4nccn4-c4ccc5c(c4)c4ccccc4n5-c4ccccn4)ccc32)nc1`, the melting point was 215 to 227 °C.

Molecule `CCCCc1cc(C=CC(=O)OC)c[nH]1` yielded a melting point of 65 to 67 °C.

The molecule `CC(C)(C)OC(=O)NC(Cc1ccccc1)C(=O)NC(Cc1ccccc1)C(=O)NCCc1c[nH]cn1` (centres undefined) gave a melting point of 175 to 177 °C.

As to `CCNc1cccnc1N1CCN(C(=O)c2ccc(C(=O)O)cc2)CC1`, the melting point was 208 to 209 °C.

`Nc1ccc(OC2=C(Oc3ccc(N)cc3)C(F)(F)C(F)(F)C2(F)F)cc1` returned a melting point of 78 to 83 °C.

`CCOCc1nc2c(N)nc3ccccc3c2n1Cc1cc(-c2cccnc2)no1`: the melting point fell in the range of 240 to 242 °C.

The molecule `CN(C)S(=O)(=O)N(c1ccc(C(=O)Nc2ccc(Br)cc2)cc1)C1OC(=O)c2ccccc21` (centres undefined) yielded a melting point of 244 to 246 °C.

`O=C(c1ccccc1)c1nc(Br)c(Br)[nH]1` gave a melting point of 215 to 217 °C.

The molecule `COC(=O)C[C@H](O)C[C@H](O)CCc1c(-c2ccc(F)cc2)c(-c2ccccc2)c(C(=O)NCc2ccccc2)n1C(C)C` yielded a melting point of 52 to 55 °C.

In turn, `COc1ccccc1NCN1C(=O)CSC1=O` registered a melting point of 88.5 to 91 °C.

For `CS(=O)(=O)c1ccc(-c2cnn(-c3ccc(F)cc3)c(=O)c2Oc2ccc(F)cc2)cc1`, the melting point lay within 83 to 85 °C.

For the molecule `COC(=O)C[C@H](O)C[C@@H](O)C=Cc1c(-c2ccc(F)cc2)c(-c2ccc(F)cc2)c(C(=O)OCc2ccccc2)n1C(C)C`, the melting point is 105 to 107 °C.

As to `CCCOCCOc1ccc(-c2ccc3c(c2)C=C(C(=O)Nc2ccc(CN(C)C4CCOCC4)cc2)CCS3(=O)=O)cc1OCC`, the melting point is 171 to 172 °C.

Turning to `c1cnc2c(c1)NCc1cccn1C2`, the melting point lay in the range of 171 to 172 °C.

As to `O=C1C(=Cc2ccoc2)CCc2cc(OCCn3ccnc3)ccc21`, the melting point fell in the range of 116 to 117 °C.

`CN(C)Cc1[nH]c2ccccc2c1Cn1ccnc1` came in with a melting point of 153 to 156 °C.

For `Cc1cc(C(=O)O)cc(C)c1C(O)c1cc(-n2ccnc2)ccc1Cl` (centres undefined), the melting point is 317 to 320 °C.

For `COC(=O)c1cc(N)c(F)c(Br)n1`, the melting point fell in the range of 187 to 190 °C.

`COc1cc(CCC2OCCO2)ccc1OCc1nc(-c2ccccc2)oc1C`: the melting point lay in the range of 90 to 91 °C.

`COc1ccc(C(=O)c2cc(Br)ccc2N)cc1`: the melting point turned out to be 120 °C.

Consider `COCCc1nc2c(N)nc3ccccc3c2n1CCOCCN(C)S(C)(=O)=O`, for which the melting point fell in the range of 145 to 146 °C.

In turn, `N=C(N)c1ccc(CC23CCCN2C(=O)N(c2cc(Cl)cc(Cl)c2)C3=O)cc1` (centres undefined) registered a melting point of 188 °C.

Take `CC(C)C[C@H](CC(N)=O)CC(=O)O`: the melting point fell in the range of 132 to 135 °C.

Take `CCOC(=O)c1ccccc1-c1ccc(Nc2cc(CC)nc3ccnn23)cc1`: the melting point lay within 223 to 225 °C.

Regarding `N#CC=C(Cc1ccc2c(c1)OCO2)Nc1ccccc1`, the melting point was in the range of 150 to 151 °C.

Molecule `Cc1cc(-c2nnc3c4ccccc4c(OCc4ccncc4)nn23)no1` gave a melting point of 244 to 246 °C.

In turn, `CCOC(=O)c1cn(-c2ccccc2)c2ccc(CN3CCOCC3)cc2c1=O` yielded a melting point of 159 to 161 °C.

Molecule `CC(=O)CNc1ccc(/C=C/C(=O)O)cc1` gave a melting point of 213 to 215 °C.

Molecule `Cc1cc(Nc2ccnc(Nc3ccc(S(=O)(=O)N(C)C4CCN(CCS(C)(=O)=O)CC4)cc3)n2)ccc1F` returned a melting point of 114 °C.

Take `CCC(=O)N(CC)c1cccc(C(=O)C=CN(C)C)c1`: the melting point lay in the range of 105 to 107 °C.

For `O=C1OC(c2ccccc2)=NC1Cc1c[nH]c2ccccc12` (centres undefined), the melting point lay within 141 to 143 °C.

Consider `COc1ccc(Nc2cccc3c2C(=O)N(C2CCC(=O)NC2=O)C3=O)c(Oc2ccccc2)c1` (centres undefined), for which the melting point is 142 to 144 °C.

The molecule `CN(C)CCC(C(=O)O)c1cccc2ccccc12` (centres undefined) had a melting point of 130 to 135 °C.

In turn, `Cc1onc(-c2ccc(Cl)o2)c1-c1ccccc1` gave a melting point of 71 to 73 °C.

`CC(C)(C)OC(=O)N1CCC2(CC1)CC(c1ccc(Cl)cc1)=NO2` registered a melting point of 138 to 141 °C.

In the case of `O=C1NC(=O)C(Cc2ccc(OCCN3C(=O)c4ccccc4C3=O)cc2)S1` (centres undefined), the melting point is 192 to 194 °C.

Molecule `COC(=O)c1cccn1CC(I)=C(I)I` gave a melting point of 88 to 90 °C.

Regarding `CC(=O)N1CCc2c(sc(C)c2CCN2CCC(c3noc4cc(F)ccc34)CC2)C1`, the melting point was 70 to 75 °C.

Turning to `CNC(=O)Nc1cc(CNc2ncccc2C(=O)Nc2ccc3cn(C)nc3c2)ccn1`, the melting point was 205 to 207 °C.

Consider `CS(=O)(=O)c1ccc(-c2sc(-c3ccc(Br)s3)nc2-c2ccc(F)cc2)cc1`, for which the melting point lay within 190 to 191 °C.

`COc1ccc2c(c1)Cc1cc(=O)[nH]nc1-2` yielded a melting point of 280 to 284 °C.

On to `NC(=NC(=O)c1nc(Cl)c(N)nc1N)NCCCCCCCCCCCC(=O)O`, for which the melting point was 194 to 196 °C.
